Assay results from ChEMBL document CHEMBL4303097 (2020).
Where a name gives a salt, the structure may show the parent alone.

What was measured:
[1] = Selectivity index for antiviral vs cytotoxic effect in Vero E6 cells (CC50/EC50); format: toxicity, cell-based, Vero C1008; conditions: monkey, read-out: Selectivity index
[2] = Cytotoxicity (CC50) determination in Vero E6 cells measured by fluorescence (OD590nm); format: toxicity, cell-based; conditions: chlorocebus sabaeus, Vero E6 cells (Vero C1008)
SARS-CoV-2 [3] = test: Antiviral efficacy against SARS-CoV-2 (strain BavPat1) in Vero E6 cells assessed by inhibition of viral RNA replication measured by RT-PCR after 2 days; format: functional, organism-based, Chlorocebus sabaeus; conditions: Severe acute respiratory syndrome coronavirus 2, Vero C1008, 48 h
SARS-CoV-2 [4] = test: Inhibition of cell viability relative to arbidol control (inhibition index > 1 indicates higher activity) measured by fluorescence (OD590nm) in Vero E6 cells infected with SARS-CoV-2 (strain BavPat1) at MOI 0.002 after 72hrs; format: functional; conditions: Chlorocebus sabaeus; Vero C1008

| Molecule | selectivity ratio [1] | CC50 [2] [µM] | EC50 (SARS-CoV-2 [3]) [µM] | EC90 (SARS-CoV-2 [3]) [µM] | Inhibition index (SARS-CoV-2 [4]) |
| --- | --- | --- | --- | --- | --- |
| CCOC(=O)c1c(CSc2ccccc2)n(C)c2cc(Br)c(O)c(CN(C)C)c12 [UMIFENOVIR] | > 3.7 | > 40 | 10.7 |  |  |
| CCCCC[C@H](O)/C=C/[C@H]1[C@H](O)CC(=O)[C@@H]1CCCCCCC(=O)O [ALPROSTADIL] | > 7.4 | > 40 | 5.39 | 62.4 |  |
| COc1ncnc(NS(=O)(=O)c2ccc(N)cc2)c1OC [SULFADOXINE] | > 1.13 | > 40 | 35.4 | 45.1 |  |
| C[C@@H]1CCO[C@H]2Cn3cc(C(=O)NCc4ccc(F)cc4F)c(=O)c(O)c3C(=O)N12 [DOLUTEGRAVIR] | > 1.8 | > 40 | 22 | 42.8 |  |
| C=C[C@H]1CN2CC[C@H]1C[C@@H]2[C@@H](O)c1ccnc2ccc(OC)cc12 | > 7.8 | > 40 | 5.11 | > 40 |  |
| CC[C@H]1OC(=O)[C@H](C)[C@@H](O[C@H]2C[C@@](C)(OC)[C@@H](O)[C@H](C)O2)[C@H](C)[C@@H](O[C@@H]2O[C@H](C)C[C@H](N(C)C)[C@H]2O)[C@](C)(O)C[C@@H](C)CN(C)[C@H](C)[C@@H](O)[C@]1(C)O [AZITHROMYCIN] | > 19 | > 40 | 2.12 |  |  |
| CC(C)(C)NC[C@H](O)c1ccc(O)c(CO)c1 [LEVALBUTEROL HYDROCHLORIDE] |  |  | > 40 |  |  |
| COc1ccccc1OCC(O)CN1CCN(CC(=O)Nc2c(C)cccc2C)CC1 (configuration not stated) [RANOLAZINE] |  |  | > 40 |  |  |
| COC(c1ccccc1)(c1ccccc1)C(Oc1nc(C)cc(C)n1)C(=O)O (configuration not stated) |  |  | > 40 |  |  |
| OCCN1CCN(CCCN2c3ccccc3C=Cc3ccccc32)CC1 [OPIPRAMOL HYDROCHLORIDE] | > 7.9 | > 40 | 5.05 |  |  |
| CYANOCOBALAMIN |  |  |  |  | 0.0637 |
| NEOMYCIN SULFATE |  |  |  |  | 0.0953 |
| Tyloxapol |  |  |  |  | 0.101 |
| CCN(CCO)CCCC(C)Nc1ccnc2cc(Cl)ccc12 (configuration not stated) [HYDROXYCHLOROQUINE SULFATE] | > 10 | > 40 | 4.17 |  |  |
| CC(C)CN(C[C@@H](O)[C@H](Cc1ccccc1)NC(=O)O[C@H]1CO[C@H]2OCC[C@H]21)S(=O)(=O)c1ccc(N)cc1 |  |  | > 40 |  |  |
| Gramicidin |  |  |  |  | -0.249 |
| COc1ccc2[nH]c([S+]([O-])Cc3ncc(C)c(OC)c3C)nc2c1 (configuration not stated) [OMEPRAZOLE] |  | > 40 | 17.1 |  |  |
| CCCc1nc(C(C)(C)O)c(C(=O)OCc2oc(=O)oc2C)n1Cc1ccc(-c2ccccc2-c2nnn[nH]2)cc1 [OLMESARTAN MEDOXOMIL] |  |  | > 40 |  |  |
| C=CCOc1ccccc1OCC(O)CNC(C)C (configuration not stated) [OXPRENOLOL HYDROCHLORIDE] | > 2 | > 40 | 20.2 | > 40 |  |
| Clc1ccc(Cn2c(CN3CCCC3)nc3ccccc32)cc1 | > 1.7 | > 40 | 23.9 | 38.2 |  |
